Assay results as given in patent US7612075B2, “Substituted oxoazaheterocyclyl compounds” (Aventis Pharmaceuticals Inc., priority 1998, dated 2009).
Structures can show the parent of a compound that is named as a salt. No end group written: not given here.

Assays:
[1] = system: human cultured vascular smooth muscle cells; details: cited from earlier work
[2] = system: rat cultured vascular smooth muscle cells; details: cited from earlier work
rabbit carotid artery = rabbit carotid artery air-drying injury model, after vascular injury; cited from earlier work

| melting point [°C] | Compound | further results |
| --- | --- | --- |
| 91 to 95 | N=C(N)c1ccc(CN2CCN(Cc3nc4ccc(Cl)cc4[nH]3)CC2=O)cc1 (as salt: salt) [Example 122, 4-[4-(6-Chloro-1H-benzoimidazol-2-ylmethyl)-2-oxo-piperazin-1-ylmethyl]-benzamidine] | – |
| 246 to 248 | Nc1n[nH]c2cc(CN3CCN(Cc4cc5ccc(Cl)cc5s4)CC3=O)ccc12 [Example 874, 1-(3-Amino-1H-indazol-6-ylmethyl)-4-(6-chloro-benzo[b]thiophen-2-ylmethyl)-piperazin-2-one] | – |
| 105 to 110 | N=C(N)c1ccc(CN2CCC(Cc3nc4ccc(Cl)cc4[nH]3)CC2=O)cc1 (stereo not drawn) (as salt: salt) [Example 815, 4-[4-(6-Chloro-1H-benzoimidazol-2-ylmethyl)-2-oxo-piperidin-1-ylmethyl]-benzamidine] | – |
| 224 to 226 | C[C@H]1CN(Cc2ccc3c(N)ncnc3c2)C(=O)[C@H](C)N1S(=O)(=O)c1cc2ccc(Cl)cc2s1 [Example 668, (3S, 5S)-1-(4-Amino-quinazolin-7-ylmethyl)-4-(6-chloro-benzo[b]thiophen-2-sulfonyl)-3,5-dimethyl-piperazin-2-one] | – |
| 274 to 276 | Nc1n[nH]c2cc(CN3CCN(S(=O)(=O)c4cc5ccc(Cl)cc5s4)CC3=O)ccc12 [Example 876, 1-(3-Amino-1H-indazol-6-ylmethyl)-4-(6-chloro-benzo[b]thiophene-2-sulfonyl)-piperazin-2-one] | – |
| 128 to 132 | Nc1ncnc2cc(CN3CCC(Cc4nc5ccc(Cl)cc5[nH]4)CC3=O)ccc12 (stereo not drawn) [Example 816, 1-(4-Amino-quinazolin-7-ylmethyl)-4-(6-chloro-1H-benzoimidazol-2-ylmethyl)-piperidin-2-one] | – |

More lines, now with the values behind:

| Compound | melting point [°C] | further results |
| --- | --- | --- |
| C[C@H]1CN(Cc2ccc3c(N)ncnc3c2)C(=O)[C@H](C)N1S(=O)(=O)C=Cc1ccc(Cl)s1 [Example 667, (3S, 5S)-1-(4-Amino-quinazolin-7-ylmethyl)-4-[2-(5-chloro-thiophen-2-yl)-ethenesulfonyl]-3,5-dimethyl-piperazin-2-one] | 218 to 221 | – |
| C[C@@H]1CN(Cc2ccc3c(N)ncnc3c2)C(=O)[C@H](C)N1CC=Cc1ccc(Cl)s1 (as salt: trifluoroacetic acid salt) [Example 665, (3S,5R)-1-(4-Amino-quinazolin-7-ylmethyl)-4-[3-(5-chloro-thiophen-2-yl)-allyl]-3,5-dimethyl-piperazin-2-one] | 67 to 70 | – |
| TAP: named only as TAP; cited (F Bono, et al.) where the mitogenic effect of Factor Xa is said to depend on its enzymatic activity (YNRLCIKPRDWIDECDSNEGGERAYFRNGKGGCDSFWICPEDHTGADYYSSYRDCFNACI; ends and bridges not checked; cysteine pairing not given here; UniProt P17726 1-60, looked up) | – | mitogenesis of human cultured vascular smooth muscle cells [1]: inhibited; mitogenesis of rat cultured vascular smooth muscle cells [2]: inhibited |
| C[C@H]1CN(Cc2ccc3c(N)ncnc3c2)C(=O)[C@H](C)N1C(=O)C=Cc1ccc(Cl)s1 (as salt: salt) [Example 669, (3S, 5S)-1-(4-Amino-quinazolin-7-ylmethyl)-4-[3-(5-chloro-thiophen-2-yl)-acryloyl]-3,5-dimethyl-piperazin-2-one] | 116 to 120 | – |
| CC(=N)N1CC[C@H](Oc2ccc([C@H](Cc3ccc4ccc(C(=N)N)cc4c3)C(=O)O)cc2)C1 [DX-9065a] | – | neointimal proliferation (rabbit carotid artery): less neointimal proliferation |
